Measured values as given in the METLIN SMRT retention time set (Domingo-Almenara et al. 2019).

Experiment: gradient 5% acetonitrile 3 min, to 50% in 2 min, to 85% in 15 min, held 3 min, 100 µL/min
Settings: column: Zorbax Extend-C18 2.1 x 50 mm; eluents: water / acetonitrile, 0.1% formic acid
Procedure, shortened: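 Pure standards were analyzed in mixtures of ~100 molecules using HPLC coupled to a quadrupole time-of-flight mass spectrometer, in both positive and negative ionization mode. Separation used a Zorbax Extend-C18 column (2.1 × 50 mm, 1.8 μm) at 100 μL/min, with water and acetonitrile each containing 0.1% formic acid. Dead and dwell volumes were 40 μL and 900 μL, and data were collected over 3 months. Retention time was read from computationally picked adduct peaks, each inspected manually.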

RP-LC retention time	Structure (SMILES)
1060 s	O=S(=O)(Cc1ccccc1)N1CCC(c2noc(COCc3ccccc3)n2)CC1
652 s	COC(=O)c1sc2ccccc2c1S(=O)(=O)N1CCC(C(N)=O)(N2CCCCC2)CC1
639 s	O=C(Cn1ccnc1-c1ccnc(N2CCOCC2)c1)N1CCN(c2ccccc2)CC1
888 s	Cc1ccc2ncn(C3CCN(C(=O)Nc4ccc(C)c(Cl)c4)CC3)c(=O)c2c1
974 s	O=C(Cn1cccc1-c1nnc(C2CCC2)o1)Nc1cccc(Br)c1
990 s	Cc1cc(C)cc(S(=O)(=O)N2CCC(C(=O)NCc3csc(-c4ccccc4)n3)CC2)c1
572 s	Cc1nc(-c2ccccc2)sc1C(=O)N1CCN(c2ccc(-n3ccnc3C)nn2)CC1
705 s	COc1ccccc1CNC(=O)Cn1nc2cc(-c3ccccc3)nc(C)n2c1=O
780 s	CC(=O)N1CCc2cc(N3CC(C(=O)Nc4cccc(Br)c4)CC3=O)ccc21 (configuration not stated)
837 s	O=C(c1cc(C2CC2)[nH]n1)N1CCN(c2ccc(Cl)cc2)CC1
517 s	Cc1cnc(CCNC(=O)Nc2ccc3c(c2)OCCO3)n1C1CCC1
780 s	CC1=C(c2ccc(Cl)cc2)S(=O)(=O)N=C1N1CCCN(C(=O)NC(C)C)CC1
718 s	COc1ccccc1N1CCN(C(=O)Cn2nc(C(=O)N3CCOCC3)c3ccccc32)CC1
747 s	Cc1cccn2c(Nc3ccc4c(c3)OCCO4)c(-c3ccc(Cl)cc3)nc12
980 s	CCCCn1cc(S(=O)(=O)Nc2ccc(C)cc2F)c2cccnc21
736 s	COc1ccc(-c2c(C)noc2NC(C)=O)cc1S(=O)(=O)Nc1ccc(F)cc1
910 s	CN1C(=O)c2cc(S(=O)(=O)Nc3ccc(F)c(F)c3)ccc2Oc2cccnc21
927 s	CCCC(C)C(=O)NC1CCN(C2=NS(=O)(=O)C(c3ccc(CC)cc3)=C2C)CC1 (configuration not stated)
762 s	O=C(CCC1CCCC1)Nc1cccc(-c2nnc3n2CCCC3)c1
584 s	O=C(C1CCCCC1)N1CCCC(c2n[nH]c(C3CC3)n2)C1 (configuration not stated)
1010 s	CCC(C)(C)NS(=O)(=O)c1cc(-c2nc(C)cs2)n(C)c1C
582 s	CCOc1ccccc1NC(=O)N1CCC(CN2CCC(C)CC2)CC1

RP-LC retention time	Structure (SMILES)
1260 s	CCCCOc1ccc(Nc2cc(Cl)ccc2C(=O)O)cn1
947 s	Cc1ccc(CNC(=O)N2CCCC(C)(C(=O)NCc3ccc(C)cc3)C2)cc1 (configuration not stated)
754 s	COc1ccc(C(=O)N2CCC3(CC2)NC(=O)c2cc(C)ccc2N3C)c(OC)c1
999 s	CC1CCN(C(=O)C2=CN(c3ccccc3)c3cc(Cl)ccc3S2(=O)=O)CC1
738 s	CCCCN(CCCC)CCCOC(=O)c1ccc(N)cc1
828 s	C=CCNC(=O)c1ccc2c(c1)c(C)c(C)n2C
643 s	Cc1ccc(CNC(=O)C2CCN(c3cncnc3N3CCCCC3)CC2)o1
1050 s	CCOC(=O)c1c(C)oc2ncnc(NCc3ccc4c(c3)OCO4)c12
709 s	O=C(NC1CCCCC1)N1CCC(CCc2nc(C3CCOCC3)no2)CC1
924 s	COc1ccc(-c2noc(C3CCCN3C(=O)c3cccs3)n2)cc1 (configuration not stated)
1140 s	COc1ccc(-c2noc(C3(NC(=O)c4ccc(OC)c(F)c4)CCCCC3)n2)cc1
958 s	CCc1nc(OCC(=O)Nc2ccc(Cl)c(Cl)c2)c2ccccc2n1
887 s	O=C(c1ccc(F)cc1Cl)N1CCN(C(=O)c2nnn3c2COC(c2ccccc2)C3)CC1 (configuration not stated)
793 s	O=C(Cn1c(=O)c2cc(-c3ccco3)nn2c2ncccc21)NC1CCCCC1
809 s	O=C(NC1CC1)c1cc2cc(Cl)ccc2[nH]1
786 s	Cc1ccc([N+](=O)[O-])cc1NC(=O)Nc1ccc(S(N)(=O)=O)cc1
832 s	Cc1ccc2c(c1)N(Cc1ccccc1)N=C(C(=O)N1CCOCC1)S2(=O)=O
666 s	COCc1nc(N2CCN(c3ccc(OC)cc3)CC2)ncc1C(=O)O
791 s	CC(C)CNC(=O)CC1Sc2ncccc2N(CC(C)C)C1=O (configuration not stated)
1070 s	CCSc1nc2ccc(NS(=O)(=O)c3cccc(Cl)c3)cc2s1
704 s	CC1(C(=O)NCc2ccc(Cl)cc2)CCCCC(=O)N1 (configuration not stated)
846 s	Cc1cccc(N2CCN(c3ccc4nnc(CCc5nc(-c6ccncc6)no5)n4n3)CC2)c1

RP-LC retention time	Structure (SMILES)
692 s	Cn1cc(-c2cc3n(n2)CCC(=O)N3CCCC(=O)N2CCOCC2)c2ccccc21
812 s	Cc1ccc(NC(=O)N2CCC3(CC2)NC(=O)c2ccccc2O3)cc1C
695 s	COc1ccc(S(=O)(=O)NCc2cccnc2-c2cccc(C)c2)cc1
1070 s	CCOc1ccc(NC(=O)c2cc(S(=O)(=O)N3CCC(C)CC3)cn2C)cc1
992 s	CCOC(=O)c1cccc(Nc2c(-c3ccc(Cl)cc3)nc3cnccn23)c1
578 s	CCOC(=O)c1c(CN2CCOCC2)n(C)c2ccc(O)cc12
673 s	CC1CCCCN1CCNC(=O)CCCn1c(=O)c2cccn2c2ccc(Br)cc21 (configuration not stated)
898 s	O=C(Cn1cccc1-c1nnc(C2CCC2)o1)N1CCN(c2ccccc2)CC1
1030 s	Cc1nc2c(sc3nc(-c4ccccc4)ccc32)c(=O)n1CC(=O)NCc1ccccc1Cl
1060 s	CCC(c1cccs1)N1C(=O)[C@H]2CN(S(=O)(=O)c3cccc(Cl)c3)C[C@H]2C1=O (some centres not stated)
1010 s	Cn1nc(-c2nnc(-c3ccccc3)o2)c2c1CCN(S(=O)(=O)c1ccc(Cl)s1)C2
1030 s	Cc1c(-c2noc(-c3ccccc3F)n2)nnn1Cc1ccccc1
580 s	Cc1cc(NC(=O)C(=O)NCCN2CCN(c3ccccc3F)CC2)no1
841 s	O=C(c1cnn2cc(Br)cnc12)N1CCCC1c1ccccc1F (configuration not stated)
654 s	O=C(c1ncccn1)N1C[C@@H](COCC2CC2)[C@H](c2ccncc2)C1
641 s	Cc1ccc(C)c2c(=O)c3c([nH]c12)CCN(CC(=O)Nc1ccccc1F)C3
727 s	COC(=O)c1cn(CC(=O)Nc2cc(F)ccc2F)c2nc(C)ccc2c1=O
1000 s	CC(C)Cn1cc(CCNS(=O)(=O)c2ccc(F)c(Cl)c2)c2cccnc21
790 s	O=C(CS(=O)(=O)Cc1ccccc1)Nc1nc2cc3c(cc2s1)OCO3
746 s	Cc1nc(NC(=O)N2CCC[C@H]2C(N)=O)sc1-c1ccnc(C(C)(C)C(F)(F)F)c1
745 s	COc1cccc(-c2ccc3nc(N4CCC(C(N)=O)CC4)sc3n2)c1

Structure (SMILES)	RP-LC retention time
CCCn1cc(C(=O)NCC2CCCO2)c2cccnc21 (configuration not stated)	669 s
O[C@@H]1CCCC[C@H]1N1CCC(c2ccccc2)CC1	661 s
